Counter-ions that a name gives are not always drawn. Like-named read-outs stand apart in the source and are kept apart here. Values belong to the compound of their own block, whether it stands above or below them.
Tests used:
[1] = Stability of the addition salt of Compound 1 (temperature, humidity, light; purity by HPLC); type: physicochemical; details: for Stability in the temperature and humidity (in words): temperature and humidity conditions of Table 5
Protocol: The stability of crystals of the addition salt of Compound 1 prepared in the Examples and Comparative Examples above was confirmed, and the results are shown in Table 5 below.
Experiments according to temperature, humidity and light conditions were carried out by a method of confirming purity by HPLC after storage in a stability chamber under each condition.
Each sample was spread thinly in a Petri dish, and then the stability was evaluated after irradiation with UV light having a light intensity of 35 W to a total irradiation amount of 200 watts under conditions of 25° C. and 60% humidity using a photostability test chamber (CARON 6542-2).
Each sample was spread thinly in a Petri dish, and then the stability was evaluated after irradiation with visible light having a light intensity of 35 k Lux to a total irradiation amount of 1200 k lux under conditions of 25° C. and 60% humidity using a photostability test chamber (CARON 6542-2).

[2] = Measurement of solubility in water (shake-flask, UPLC); type: physicochemical; details: for Water solubility: shake-flask shaken for 24 hours, UPLC
Protocol: Compounds are dissolved in DMSO and measured by UPLC, and then a calibration curve is drawn. The compounds saturated by the Shake-flask method are filtered and then measured by UPLC, and it is substituted into a calibration curve to calculate the concentration.

[3] = biological target: T1, tankyrase-2 enzyme (Homo sapiens, UniProt Q9H2K2); assay: Inhibition test of tankyrase-2 enzyme (BPS Bioscience kit); type: biochemical; details: tankyrase-2 enzyme 15 ng/well, 25° C. for 1 hour; read-out: IC50 (tankyrase-2 enzyme inhibitory activity)
T1 construct: purchased BPS Bioscience 80578
Protocol: (§1) Histones were coated on a 96-well plate provided from BPS Bioscience's kit and left at 4 °C for 16 hours. […] After 1 hour, each well was washed 4 times with PBST, and streptavidin-linked peroxidase (Strep-HRP, 1:50 dilution) was added thereto to measure the amount of ribosylation by PARP enzyme, and reacted at 25° C. for 30 minutes. The plate was washed 4 times with PBST, and then HRP chemiluminescent substrate was finally added thereto and reacted. The amount of histone ribosylation formed by each enzyme was quantified using a Synergy™ H4 Hybrid Multi-Mode Microplate Reader (BioTek Instruments, Inc., US (A)).

[4] = biological target: PARP-1 enzyme (Homo sapiens, UniProt P09874); assay: Inhibition test of poly (ADP-ribose) polymerase [PARP-1] enzyme (BPS Bioscience kit)
Protocol: Histones were coated on a 96-well plate provided from BPS Bioscience's kit and left at 4° C. for 16 hours. […] After 1 hour, each well was washed 4 times with PBST, and streptavidin-linked peroxidase (Strep-HRP, 1:50 dilution) was added thereto to measure the amount of ribosylation by PARP enzyme, and reacted at 25° C. for 30 minutes. The plate was washed 4 times with PBST, and then HRP chemiluminescent substrate was finally added thereto and reacted. The amount of histone ribosylation formed by each enzyme was quantified using a Synergy™ H4 Hybrid Multi-Mode Microplate Reader (BioTek Instruments, Inc., US (A)).

[5] = Measurement of solubility in various solvents; type: physicochemical; details: 0.1 g of sample, 15 to 25° C., within 30 minutes
Protocol: Specifically, 0.1 g of sample was accurately weighed, put into each solvent, and shaken and mixed vigorously for 30 seconds every 5 minutes at 15 to 25° C., and the amount dissolved within 30 minutes was measured.

[6] = biological target: tankyrase-1 enzyme (Homo sapiens, UniProt O95271); assay: biochemical
Protocol: as §1

[7] = Purity and stability under accelerated and long-term storage conditions (HPLC); type: physicochemical; details: for Purity under long-term storage conditions (area %) / Long-term storage conditions (related substances) (area %): 25±2° C., humidity 60±5%; for Purity under accelerated storage conditions (area %) / Accelerated storage conditions (related substances) (area %): 40±2° C., humidity 75±5%
Protocol: The purity and stability of the crystalline anhydride of the citrate prepared in Example 2 and the crystalline monohydrate of the citrate prepared in Example 3 according to the present invention were evaluated, and the results are shown in Tables 8 and 9 below.
In the tables below, stability tests were conducted under accelerated storage conditions of a temperature of 40±2° C. and humidity of 75±5%, and purity and stability tests were conducted under long-term storage conditions of a temperature of 25±2° C. and humidity of 60±5%. Experimental results were measured under the same conditions as in Experimental Example 1 using HPLC (product name: agilent 1290, manufacturer: Agilent).

[8] = Temperature of 40° C., humidity of 70%, 3 days
[9] = UV 200 watt, 25° C. and 60% humidity
[10] = Visible 1200k lux, 25° C. and 60% humidity
[11] = 3 months, listed as Crystalline anhydride of citrate in Example 2
[12] = 6 months, listed as Crystalline anhydride of citrate in Example 2
[13] = initial, listed as Crystalline anhydride of citrate in Example 2
[14] = 3 months, listed as Crystalline monohydrate of citrate in Example 3
[15] = 6 months, listed as Crystalline monohydrate of citrate in Example 3
[16] = initial, listed as Crystalline monohydrate of citrate in Example 3

T1 sequence (Q9H2K2 849-1166): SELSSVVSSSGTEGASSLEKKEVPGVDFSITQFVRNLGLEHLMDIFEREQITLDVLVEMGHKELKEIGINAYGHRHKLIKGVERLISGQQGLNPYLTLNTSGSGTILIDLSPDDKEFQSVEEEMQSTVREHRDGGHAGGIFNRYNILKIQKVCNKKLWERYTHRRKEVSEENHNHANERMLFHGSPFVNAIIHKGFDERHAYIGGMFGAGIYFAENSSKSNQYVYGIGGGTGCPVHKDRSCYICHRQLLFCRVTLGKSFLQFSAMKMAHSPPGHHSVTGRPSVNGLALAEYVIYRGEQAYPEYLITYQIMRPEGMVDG
Chain of PARP-1 enzyme (P09874 whole entry): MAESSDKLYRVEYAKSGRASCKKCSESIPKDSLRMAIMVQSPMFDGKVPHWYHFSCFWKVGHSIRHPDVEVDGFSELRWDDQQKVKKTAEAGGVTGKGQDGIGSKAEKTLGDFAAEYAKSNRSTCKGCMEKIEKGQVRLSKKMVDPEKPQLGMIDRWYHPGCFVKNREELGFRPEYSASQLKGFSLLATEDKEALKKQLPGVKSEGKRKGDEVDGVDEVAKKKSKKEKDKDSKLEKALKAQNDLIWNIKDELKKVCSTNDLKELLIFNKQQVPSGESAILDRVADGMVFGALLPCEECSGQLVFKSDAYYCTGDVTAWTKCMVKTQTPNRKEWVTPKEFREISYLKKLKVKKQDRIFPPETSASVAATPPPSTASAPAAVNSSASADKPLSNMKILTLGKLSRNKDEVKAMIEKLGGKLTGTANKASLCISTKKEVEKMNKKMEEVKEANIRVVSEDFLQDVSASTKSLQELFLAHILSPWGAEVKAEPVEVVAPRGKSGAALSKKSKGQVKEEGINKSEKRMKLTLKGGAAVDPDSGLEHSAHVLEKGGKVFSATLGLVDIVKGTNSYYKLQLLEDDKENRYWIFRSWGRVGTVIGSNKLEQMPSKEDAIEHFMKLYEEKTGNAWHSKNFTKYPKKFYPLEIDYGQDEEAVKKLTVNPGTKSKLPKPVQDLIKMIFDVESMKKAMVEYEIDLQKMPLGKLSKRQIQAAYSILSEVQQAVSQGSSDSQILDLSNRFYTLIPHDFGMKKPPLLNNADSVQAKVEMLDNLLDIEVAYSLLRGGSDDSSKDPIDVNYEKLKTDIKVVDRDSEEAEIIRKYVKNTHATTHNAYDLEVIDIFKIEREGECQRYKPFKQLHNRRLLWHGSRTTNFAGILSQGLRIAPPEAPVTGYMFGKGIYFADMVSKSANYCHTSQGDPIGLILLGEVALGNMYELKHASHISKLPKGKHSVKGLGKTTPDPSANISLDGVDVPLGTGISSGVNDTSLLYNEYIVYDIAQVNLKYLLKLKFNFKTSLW
Chain of tankyrase-1 enzyme (O95271 1001-1327): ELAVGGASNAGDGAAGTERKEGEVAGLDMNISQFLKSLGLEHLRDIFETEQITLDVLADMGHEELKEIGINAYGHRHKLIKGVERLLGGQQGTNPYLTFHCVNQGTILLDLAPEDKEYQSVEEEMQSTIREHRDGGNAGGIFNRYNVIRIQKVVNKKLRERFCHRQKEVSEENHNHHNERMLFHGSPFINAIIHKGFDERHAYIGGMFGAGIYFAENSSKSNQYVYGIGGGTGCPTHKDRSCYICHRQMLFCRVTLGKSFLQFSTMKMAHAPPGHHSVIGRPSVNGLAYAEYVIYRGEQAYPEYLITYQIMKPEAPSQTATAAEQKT

SMILES: Cl.Cl.N#Cc1ccc(N2CCN(Cc3ccc4c5c(c(=O)[nH]c4c3)CCCN5)CC2)nc1 [Comparative Example 2, Dichloride Salt of 6-{4-[(5-oxo-1,2,3,4,5,6-hexahydrobenzo[h][1,6]naphthyridin-8-yl)methyl]piperazine-1-yl}nicotinonitrile]
- Purity (%) ([1]; Humidity of 75%, 3 days): 97.76%
- Purity (%) ([1]; Initial value): 97.89%
- Purity (%) [1, 8]: 97.83%
- Purity (%) ([1]; Temperature of 50° C., 3 days): 97.79%
- Purity (%) ([1]; UV 200 watt - dark): 97.89%
- Photostability (in words) ([1]; UV200 watt and Visible1200 k lux): remarkably poor photostability
- Purity (%) [1, 9]: 86.89%
- Purity (%) ([1]; Visible 1200k lux - dark): 97.89%
- Purity (%) [1, 10]: 93.40%
- Stability in the temperature and humidity (in words) [1]: stable
- Water solubility [2]: 392 µM
- IC50 [3]: 1.12 nM
- IC50 ([4]; read-out: IC50 (PARP-1 enzyme inhibitory activity), PARP-1 enzyme 50 ng/well, 25° C. for 1 hour): 3.03 nM

SMILES: N#Cc1ccc(N2CCN(Cc3ccc4c5c(c(=O)[nH]c4c3)CCCN5)CC2)nc1 [Compound 1, 6-{4-[(5-oxo-1,2,3,4,5,6-hexahydrobenzo[h][1,6]naphthyridin-8-yl)methyl]piperazin-1-yl}nicotinonitrile]
- Solubility (0.1 g/mL) ([5]; Aqueous HCl solution (pH 1.1), listed as Free form): 350 mL
- Solubility (0.1 g/mL) ([5]; DMF, listed as Free form): 8 mL
- Solubility (0.1 g/mL) ([5]; EtOH, listed as Free form): ≥ 1000 mL
- Solubility (0.1 g/mL) ([5]; MeOH, listed as Free form): 300 mL
- Solubility (0.1 g/mL) ([5]; Water, listed as Free form): ≥ 1200 mL
- Water solubility ([2]; listed as Crystal (free form) of the compound of Formula 1 in Comparative Example 1-1): 1 µM

SMILES: N#Cc1ccc(N2CCN(Cc3ccc4c5c(c(=O)[nH]c4c3)CCCN5)CC2)nc1 [Example 2, Citrate Anhydride of 6-{4-[(5-oxo-1,2,3,4,5,6-hexahydrobenzo[h][1,6]naphthyridin-8-yl)methyl]piperazine-1-yl}nicotinonitrile]
- Solubility (0.1 g/mL) ([5]; Aqueous HCl solution (pH 1.1), listed as Crystalline anhydride of citrate in Example 2): ≤ 100 mL
- Solubility (0.1 g/mL) ([5]; DMF, listed as Crystalline anhydride of citrate in Example 2): 8 mL
- Solubility (0.1 g/mL) ([5]; EtOH, listed as Crystalline anhydride of citrate in Example 2): ≥ 1000 mL
- Solubility (0.1 g/mL) ([5]; MeOH, listed as Crystalline anhydride of citrate in Example 2): ≥ 100 mL
- Solubility (0.1 g/mL) ([5]; Water, listed as Crystalline anhydride of citrate in Example 2): ≤ 1000 mL
- Purity (%) ([1]; Humidity of 75%, 3 days): 97.81%
- Purity (%) ([1]; Initial value): 97.97%
- Purity (%) [1, 8]: 97.79%
- Purity (%) ([1]; Temperature of 50° C., 3 days): 97.86%
- Purity (%) ([1]; UV 200 watt - dark): 98.38%
- Purity (%) [1, 9]: 96.94%
- Purity (%) ([1]; Visible 1200k lux - dark): 98.39%
- Purity (%) [1, 10]: 96.73%
- Stability in the temperature and humidity (in words) [1]: stable
- Solubility in water (in words) ([2]; compared to other salts): remarkably excellent solubility in water
- Water solubility ([2]; listed as Crystalline anhydride of citrate of Compound 1): 1067 µM
- IC50 [6]: 4.31 nM
- IC50 [3]: 1.06 nM
- Purity under long-term storage conditions (area %) ([7]; 1 month): 99.64%
- Purity under long-term storage conditions (area %) ([7]; 3 months): 99.66%
- Long-term storage conditions (related substances) (area %) [7, 11]: 0.28%
- Purity under long-term storage conditions (area %) ([7]; 6 months): 99.58%
- Long-term storage conditions (related substances) (area %) [7, 12]: 0.29%
- Long-term storage conditions (related substances) (area %) ([7]; 9 months): 0.31%
- Purity under long-term storage conditions (area %) ([7]; 9 months): 99.67%
- Long-term storage conditions (related substances) (area %) ([7]; 12 months): 0.29%
- Purity under long-term storage conditions (area %) ([7]; 12 months): 99.72%
- Long-term storage conditions (related substances) (area %) ([7]; 18 months): 0.33%
- Purity under long-term storage conditions (area %) ([7]; 18 months): 99.73%
- Long-term storage conditions (related substances) (area %) ([7]; 24 months): 0.34%
- Purity under long-term storage conditions (area %) ([7]; 24 months): 99.74%
- Long-term storage conditions (related substances) (area %) ([7]; 30 months): 0.34%
- Long-term storage conditions (related substances) (area %) ([7]; 36 months): 0.30%
- Purity under long-term storage conditions (area %) ([7]; 36 months): 99.73%
- Purity under long-term storage conditions (area %) ([7]; initial): 99.66%
- Long-term storage conditions (related substances) (area %) [7, 13]: 0.26%
- Purity under accelerated storage conditions (area %) ([7]; 1 month): 99.64%
- Purity under accelerated storage conditions (area %) ([7]; 3 months): 99.65%
- Accelerated storage conditions (related substances) (area %) [7, 11]: 0.24%
- Purity under accelerated storage conditions (area %) ([7]; 6 months): 99.54%
- Accelerated storage conditions (related substances) (area %) [7, 12]: 0.28%
- Purity under accelerated storage conditions (area %) ([7]; initial): 99.66%
- Accelerated storage conditions (related substances) (area %) [7, 13]: 0.26%
- IC50 [4]: 2.62 nM

Results, then the compound that gave them:

- Solubility (0.1 g/mL) ([5]; Aqueous HCl solution (pH 1.1), listed as Crystalline monohydrate of citrate in Example 3): 50 mL
- Solubility (0.1 g/mL) ([5]; DMF, listed as Crystalline monohydrate of citrate in Example 3): 2.9 mL
- Solubility (0.1 g/mL) ([5]; EtOH, listed as Crystalline monohydrate of citrate in Example 3): 350 mL
- Solubility (0.1 g/mL) ([5]; MeOH, listed as Crystalline monohydrate of citrate in Example 3): 9 mL
- Solubility (0.1 g/mL) ([5]; Water, listed as Crystalline monohydrate of citrate in Example 3): 400 mL
- Long-term storage conditions (related substances) (area %) [7, 14]: 0.29%
- Long-term storage conditions (related substances) (area %) [7, 15]: 0.32%
- Long-term storage conditions (related substances) (area %) [7, 16]: 0.38%
- Accelerated storage conditions (related substances) (area %) [7, 14]: 0.34%
- Accelerated storage conditions (related substances) (area %) [7, 15]: 0.32%
- Accelerated storage conditions (related substances) (area %) [7, 16]: 0.38%
SMILES: N#Cc1ccc(N2CCN(Cc3ccc4c5c(c(=O)[nH]c4c3)CCCN5)CC2)nc1 [Example 3, Citrate Monohydrate of 6-{4-[(5-oxo-1,2,3,4,5,6-hexahydrobenzo[h][1,6]naphthyridin-8-yl)methyl]piperazine-1-yl}nicotinonitrile]

- Solubility (0.1 g/mL) ([5]; Aqueous HCl solution (pH 1.1), listed as Crystalline dihydrate of citrate in Example 4): 55 mL
- Solubility (0.1 g/mL) ([5]; DMF, listed as Crystalline dihydrate of citrate in Example 4): 2.5 mL
- Solubility (0.1 g/mL) ([5]; EtOH, listed as Crystalline dihydrate of citrate in Example 4): 450 mL
- Solubility (0.1 g/mL) ([5]; MeOH, listed as Crystalline dihydrate of citrate in Example 4): 9 mL
- Solubility (0.1 g/mL) ([5]; Water, listed as Crystalline dihydrate of citrate in Example 4): ≥ 400 mL
SMILES: N#Cc1ccc(N2CCN(Cc3ccc4c5c(c(=O)[nH]c4c3)CCCN5)CC2)nc1 [Example 4, Citrate Dihydrate of 6-{4-[(5-oxo-1,2,3,4,5,6-hexahydrobenzo[h][1,6]naphthyridin-8-yl)methyl]piperazine-1-yl}nicotinonitrile]
